Test results reported in ChEMBL document CHEMBL4229455, “Synthesis and anticancer activity of novel bisindolylhydroxymaleimide derivatives with potent GSK-3 kinase inhibition” (Bioorg Med Chem, 2018).

Tests used:
Format in all cases: functional
CAKI-1 = test: Cytotoxicity against human Caki1 cells assessed as cell growth at 1 uM after 48 hrs by SRB assay relative to control; settings: CAKI-1, 48 h, read-out: Activity
SW-620 = test: Cytotoxicity against human SW620 cells assessed as cell growth at 0.01 uM after 48 hrs by SRB assay relative to control; settings: SW-620, 48 h, read-out: Activity
OVCAR-8 = test: Cytotoxicity against human OVCAR8 cells assessed as cell growth at 0.01 uM after 48 hrs by SRB assay relative to control; settings: OVCAR-8, 48 h, read-out: Activity
Hs-578T = test: Cytotoxicity against human Hs 578T cells assessed as cell growth at 100 uM after 48 hrs by SRB assay relative to control; settings: read-out: Activity
LOX IMVI [1] = test: Cytotoxicity against human LOXIMVI cells assessed as cell growth at 0.01 uM after 48 hrs by SRB assay relative to control; settings: read-out: Activity
MDA-MB-435 [2] = test: Cytotoxicity against human MDA-MB-435 cells after 48 hrs by SRB assay; settings: MDA-MB-435, 48 h
HCT-15 = test: Cytotoxicity against human HCT15 cells assessed as cell growth at 0.1 uM after 48 hrs by SRB assay relative to control; settings: HCT-15, 48 h, read-out: Activity
SF-295 [3] = test: Cytotoxicity against human SF295 cells assessed as cell growth at 0.01 uM after 48 hrs by SRB assay relative to control; settings: SF-295, 48 h, read-out: Activity
NCI/ADR-RES = test: Cytotoxicity against human NCI-ADR-RES cells assessed as cell growth at 1 uM after 48 hrs by SRB assay relative to control; settings: read-out: Activity
BT-549 = test: Cytotoxicity against human BT549 cells assessed as cell growth at 0.01 uM after 48 hrs by SRB assay relative to control; settings: BT-549, 48 h, read-out: Activity
HOP-92 = test: Cytotoxicity against human HOP92 cells assessed as cell growth at 0.1 uM after 48 hrs by SRB assay relative to control; settings: HOP-92, 48 h, read-out: Activity
786-0 [4] = test: Cytotoxicity against human 786-O cells assessed as cell growth at 0.01 uM after 48 hrs by SRB assay relative to control; settings: 786-0, 48 h, read-out: Activity
SF-539 = test: Cytotoxicity against human SF539 cells after 48 hrs by SRB assay; settings: SF-539, 48 h
HCC 2998 = test: Cytotoxicity against human HCC2998 cells assessed as cell growth at 0.01 uM after 48 hrs by SRB assay relative to control; settings: HCC 2998, 48 h, read-out: Activity
NCI-H522 = test: Cytotoxicity against human NCI-H522 cells assessed as cell growth at 1 uM after 48 hrs by SRB assay relative to control; settings: NCI-H522, 48 h, read-out: Activity
HL-60(TB) = test: Cytotoxicity against human HL-60(TB) cells assessed as cell growth at 0.01 uM after 48 hrs by SRB assay relative to control; settings: HL-60, 48 h, read-out: Activity
LOX IMVI [5] = test: Cytotoxicity against human LOXIMVI cells after 48 hrs by SRB assay
SF-268 = test: Cytotoxicity against human SF268 cells assessed as cell growth at 0.01 uM after 48 hrs by SRB assay relative to control; settings: SF-268, 48 h, read-out: Activity
MDA-MB-435 [6] = test: Cytotoxicity against human MDA-MB-435 cells assessed as cell growth at 0.1 uM after 48 hrs by SRB assay relative to control; settings: MDA-MB-435, 48 h, read-out: Activity
SR = test: Cytotoxicity against human SR cells assessed as cell growth at 100 uM after 48 hrs by SRB assay relative to control; settings: read-out: Activity
KM12 = test: Cytotoxicity against human KM12 cells assessed as cell growth at 0.01 uM after 48 hrs by SRB assay relative to control; settings: KM12, 48 h, read-out: Activity
NCI-H460 = test: Cytotoxicity against human NCI-H460 cells assessed as cell growth at 0.01 uM after 48 hrs by SRB assay relative to control; settings: NCI-H460, 48 h, read-out: Activity
A498 = test: Cytotoxicity against human A498 cells assessed as cell growth at 100 uM after 48 hrs by SRB assay relative to control; settings: A498, 48 h, read-out: Activity
TK-10 = test: Cytotoxicity against human TK10 cells assessed as cell growth at 100 uM after 48 hrs by SRB assay relative to control; settings: TK-10, 48 h, read-out: Activity
786-0 [7] = test: Cytotoxicity against human 786-O cells assessed as cell growth at 1 uM after 48 hrs by SRB assay relative to control; settings: 786-0, 48 h, read-out: Activity
RXF 393 = test: Cytotoxicity against human RXF393 cells assessed as cell growth at 0.01 uM after 48 hrs by SRB assay relative to control; settings: RXF 393, 48 h, read-out: Activity
OVCAR-3 = test: Cytotoxicity against human OVCAR3 cells assessed as cell growth at 1 uM after 48 hrs by SRB assay relative to control; settings: OVCAR-3, 48 h, read-out: Activity
HT-29 = test: Cytotoxicity against human HT-29 cells assessed as cell growth at 0.01 uM after 48 hrs by SRB assay relative to control; settings: HT-29, 48 h, read-out: Activity
SK-MEL-28 = test: Cytotoxicity against human SK-MEL-28 cells assessed as cell growth at 1 uM after 48 hrs by SRB assay relative to control; settings: SK-MEL-28, 48 h, read-out: Activity
MOLT-4 = test: Cytotoxicity against human MOLT4 cells after 48 hrs by SRB assay; settings: MOLT-4, 48 h; for CC50: read-out: LC50 (the source's name)
M14 = test: Cytotoxicity against human M14 cells assessed as cell growth at 1 uM after 48 hrs by SRB assay relative to control; settings: M14, 48 h, read-out: Activity
SK-MEL-2 = test: Cytotoxicity against human SK-MEL-2 cells after 48 hrs by SRB assay; settings: SK-MEL-2, 48 h
SK-MEL-5 = test: Cytotoxicity against human SK-MEL-5 cells assessed as cell growth at 1 uM after 48 hrs by SRB assay relative to control; settings: SK-MEL-5, 48 h, read-out: Activity
SF-295 [8] = test: Cytotoxicity against human SF295 cells after 48 hrs by SRB assay; settings: SF-295, 48 h; for CC50: read-out: LC50 (the source's name)
MDA-MB-435 [9] = test: Cytotoxicity against human MDA-MB-435 cells assessed as cell growth at 100 uM after 48 hrs by SRB assay relative to control; settings: MDA-MB-435, 48 h, read-out: Activity

## Cn1cc(C2=C(c3cn(C)c4ncccc34)C(=O)NC2=O)c2ccccc21
CAKI-1
  growth at 1 µM: 54%
SW-620
  growth at 0.01 µM: 96%
OVCAR-8
  growth at 0.01 µM: 105%
Hs-578T
  growth at 100 µM: -37%
LOX IMVI [1]
  growth at 0.01 µM: 101%
MDA-MB-435 [2]
  GI50: 0.648 µM
  TGI: 19.3 µM
HCT-15
  growth at 0.1 µM: 103%
SF-295 [3]
  growth at 0.01 µM: 98%
NCI/ADR-RES
  growth at 1 µM: 91%
BT-549
  growth at 0.01 µM: 110%
HOP-92
  growth at 0.1 µM: 83%
786-0 [4]
  growth at 0.01 µM: 99%
SF-539
  GI50: 2.09 µM
  TGI: 5.85 µM
HCC 2998
  growth at 0.01 µM: 103%
NCI-H522
  growth at 1 µM: 93%
HL-60(TB)
  growth at 0.01 µM: 106%
LOX IMVI [5]
  GI50: 2.61 µM
  TGI: 30.2 µM
SF-268
  growth at 0.01 µM: 103%
MDA-MB-435 [6]
  growth at 0.1 µM: 93%
SR
  growth at 100 µM: -21%
KM12
  growth at 0.01 µM: 102%
NCI-H460
  growth at 0.01 µM: 97%
A498
  growth at 100 µM: -49%
TK-10
  growth at 100 µM: -18%
786-0 [7]
  growth at 1 µM: 98%
RXF 393
  growth at 0.01 µM: 98%
OVCAR-3
  growth at 1 µM: 98%
HT-29
  growth at 0.01 µM: 109%
SK-MEL-28
  growth at 1 µM: 90%
MOLT-4
  GI50: 3.53 µM
  TGI: 17.7 µM
  CC50: > 100 µM
M14
  growth at 1 µM: 110%
SK-MEL-2
  GI50: 3.2 µM
  TGI: 8.28 µM
SK-MEL-5
  growth at 1 µM: 89%
SF-295 [8]
  GI50: 2.61 µM
  TGI: 10.3 µM
  CC50: > 100 µM
MDA-MB-435 [9]
  growth at 100 µM: -35%

## N#CCCCCCn1cc(C2=C(c3cn(CCCCCC#N)c4ccccc34)C(=O)N(O)C2=O)c2ccccc21
CAKI-1
  growth at 1 µM: 93%
SW-620
  growth at 0.01 µM: 100%
OVCAR-8
  growth at 0.01 µM: 99%
Hs-578T
  growth at 100 µM: 5%
LOX IMVI [1]
  growth at 0.01 µM: 94%
MDA-MB-435 [2]
  GI50: 2.74 µM
  LC50: > 100 µM
  TGI: 8.31 µM
HCT-15
  growth at 0.1 µM: 93%
SF-295 [3]
  growth at 0.01 µM: 98%
NCI/ADR-RES
  growth at 1 µM: 102%
BT-549
  growth at 0.01 µM: 101%
HOP-92
  growth at 0.1 µM: 97%
786-0 [4]
  growth at 0.01 µM: 103%
SF-539
  GI50: 2.82 µM
  LC50: > 100 µM
  TGI: 9.42 µM
HCC 2998
  growth at 0.01 µM: 98%
NCI-H522
  growth at 1 µM: 85%
HL-60(TB)
  growth at 0.01 µM: 98%
LOX IMVI [5]
  GI50: 2.53 µM
  LC50: > 100 µM
  TGI: 48.1 µM
SF-268
  growth at 0.01 µM: 97%
MDA-MB-435 [6]
  growth at 0.1 µM: 95%
SR
  growth at 100 µM: -14%
KM12
  growth at 0.01 µM: 97%
NCI-H460
  growth at 0.01 µM: 104%
A498
  growth at 100 µM: -1%
TK-10
  growth at 100 µM: 12%
786-0 [7]
  growth at 1 µM: 100%
RXF 393
  growth at 0.01 µM: 96%
OVCAR-3
  growth at 1 µM: 101%
HT-29
  growth at 0.01 µM: 100%
SK-MEL-28
  growth at 1 µM: 103%
MOLT-4
  GI50: 2.93 µM
  TGI: > 100 µM
  CC50: > 100 µM
M14
  growth at 1 µM: 89%
SK-MEL-2
  GI50: 3.38 µM
  LC50 (concentration killing 50% of cells): > 100 µM
  TGI: 14.9 µM
SK-MEL-5
  growth at 1 µM: 92%
SF-295 [8]
  GI50: 5.93 µM
  TGI: 31.4 µM
  CC50: > 100 µM
MDA-MB-435 [9]
  growth at 100 µM: -27%
